{"source": "patent US8394742B2", "about": "“Methods, compounds and compositions with genotype selective anticancer activity” (The Translation Genomics Research Institute, priority 2005, dated 2013)", "key": {"[1]": {"system": "HPDE6-siDPC4 (HPDE6 cells with DPC4 expression stably suppressed by siRNA)", "assay": "MTS cell proliferation assay, HPDE6-siDPC4 cells", "type": "cell-based", "conditions": "Homo sapiens", "protocol": "At the initial screening, compounds are tested in the MTS assay (or other cell proliferation assays such as SRB and Alamar Blue) against the cell line in which the specific gene is either deleted or suppressed by siRNA at a single dose of 10 μM (Toxicity Screening).\nCompounds that show more than 50% cell growth inhibition at this concentration are selected to test against both isogenic cell lines (loss-of-function vs. wild type) at three different concentrations (10, 2 and 0.4 μM, Synthetic lethal Screening). Compounds that show a selectivity index ≧5 are selected for next round of screening—Selectivity Screening.\nIn the Selectivity Screening, compounds are tested against cancer cell lines with a specific loss-of-function mutation and normal cells (HPDE6 and FORF-TERT). Depending on their approximate potency assessed in the Synthetic lethal Screening, compounds are tested in a range of concentrations (8 concentrations per agent) in Selectivity Screening. Compounds that have nM IC50 values in loss-of-function cells and selectivity index values >10 are selected for phenotypic consequence tests and in vivo evaluations in animal models.\nThe inhibition of cell proliferation by library compounds was evaluated using the CellTiter 96 Non-Radioactive Cell Proliferation Assay following the protocol recommended by the manufacturer (Promega, Madison Wis.). […]"}, "[2]": {"system": "pancreatic cancer cell lines", "assay": "MTS cell proliferation assay, panel of pancreatic cancer cell lines", "type": "cell-based, human", "protocol": "(§1) The inhibition of cell proliferation by library compounds was evaluated using the CellTiter 96 Non-Radioactive Cell Proliferation Assay following the protocol recommended by the manufacturer (Promega, Madison Wis.). Briefly, 2000 cells were seeded in each well of 96-well plates in 90 μl growth medium. Cells were allowed to attach overnight followed by addition of 10 μl of serially diluted compounds into the plates. After incubation for 4 days at 37° C. in a humidified incubator, 20 μl of a 20:1 mixture of (3-(4,5-dimethylthiazol-2-yl)-5-(3-carboxymethoxyphenyl)-2-(4-sulfophenyl)-2H-tetrazolium, inner salt (MTS, 2 mg/ml) and an electron coupling reagent, phenazine methosulfate (PMS, 0.92 mg/ml), was added to each well and incubated for 3 hours at 37° C. Absorbance was then measured using the Wallace Victor microplate reader at 490 nm (PerkinElmer, Wellesley, Mass.). Data were expressed as the percentage of cell growth calculated from the absorbance corrected for background absorbance. The surviving fraction of cells was determined by dividing the mean absorbance values of the treated samples by the mean absorbance values of the DMSO control.\nApplicants further examined the anti-proliferative activity of UA62001 in a panel of cell lines including normal cell lines which have wildtype DPC4 and pancreatic cancer lines with either wildtype DPC4 or inactivated DPC4 (Table 1). […]"}, "[3]": {"system": "caspase-3", "assay": "Caspase-3 activation analysis by Western blot", "type": "cell-based, human", "conditions": "BxPC-3-vector and BxPC-3-DPC4 cells, 25 μM, 24 hours", "protocol": "FIG. 5A provides a graphic depiction of the Annexin V staining. The percentage of cells in the indicated M1 region was 4.6% in the untreated control and 8.2%, in the UA62001-treated (25 μM, 24 hours) BxPC-3 cells. FIG. 5B provides an image of the activation of pro-caspase-3 in BxPC-3 cells after UA62001 treatment. Whole cell extracts were prepared from BxPC-3-vector and BxPC-3-DPC4 cells after UA62001 (25 μM, 24 hours) treatment. Each lane was loaded with 20 μg of total protein. Camptothecin treated Jurkat cell lysate (20 μg) was loaded as the positive control. Lane 1, BxPC-3-DPC4; lane 2, BxPC-3-DPC4-UA62001; lane 3, BxPC-3-vector; lane 4, BxPC-3-vector-UA62001; lane 5, Jurkat-camptothecin.\nWhole cell extracts were prepared using Nonidet P-40 (NP-40) lysis buffer (1% IGEPAL CA-630, a substitute for NP-40, 150 mM NaCl, 50 mM Tris-HCl [pH 7.4], 2 mM EDTA). […] Protein concentrations of the lysates or fractionates were determined using the BCA reagents (PIERCE). […] DPC4 protein was detected by a monoclonal antibody (Oncogene Research Products, Boston, Mass.). p21 protein was detected by a polyclonal antibody (Cell Signaling Technology, Beverly, Mass.). Both active and proto-form of the caspas-3 were detected by a polyclonal antibody obtained from BD Pharmingen (BD Biosciences Pharmingen, San Diego, Calif.). β-Actin, which served as a loading control was detected by a monoclonal antibody (Sigma). […]"}, "[4]": {"system": "BxPC-3-DPC4 cells", "assay": "MTS based cell proliferation assay, BxPC-3-DPC4 cells", "parameters": "species or system human", "conditions": "for IC50: BxPC-3-DPC4 (reexpression of wild-type DPC4), MTS, 4 days", "protocol": "as §1\nAfter generating the isogenic cell lines for the DPC4 gene, Applicants then carried out a screening process using the cell lines with the aim to identify compounds that selectively kill cells with deficient DPC4 function. […] In each round, the anti-proliferative activity of compounds was evaluated in different cell lines using the CellTiter 96 Non-Radioactive Cell Proliferation Assay (Promega). In the Toxicity Screen, compounds were evaluated in the BxPC-3 parental cell line at a single concentration of 10 μM. […] The activities of a compound in the DPC4 isogenic cell lines were calculated and a selectivity index was determined for each concentration (Selectivity index=Percentage cell survival in BxPC-3-DPC4 cells/Percentage cell survival in BxPC-3-vector cells). […] These ten compounds were further evaluated in third round of screening, the Selectivity screening. […]"}}, "data": [{"compound": "O=C1c2ccccc2C(=O)c2c1ccc1c(=O)n(-c3ccccc3)[nH]c21", "note": "[UA62001, 2-phenyl-1H-Naphth [2,3-g]indazole-3,6,11(2H)-trione]", "values": [{"measurement": "IC50", "setting": "[1]", "value": 6, "unit": "µM"}, {"measurement": "IC50 values in pancreatic cancer cell lines", "setting": "[2]", "value": "low μM"}, {"measurement": "cleavage of proto-form of caspase-3", "setting": "[3]", "value": "did not induce the cleavage"}, {"measurement": "IC50", "setting": "[4]", "value": "14.7 ± 4.3", "unit": "µM"}, {"measurement": "IC50", "setting": "[4]; Homo sapiens, 96 h", "value": 25, "unit": "µM"}, {"measurement": "IC50 values in two more stable clones of BxPC-3-DPC4 cells", "setting": "[4]; two more stable clones, compared with the original clone", "value": "very similar to that in the original clone"}]}]}
